The assay deals with Protein-arginine deiminase type-1 (Homo sapiens) (UniProt Q9ULC6). The assay can be described thus: PubChem AID 651868. To be noted: recombinant PAD1, citrulline colorimetric, time-dependent inactivation; active compounds read high.
Chain of Protein-arginine deiminase type-1 (Homo sapiens) (Q9ULC6 whole entry, looked up): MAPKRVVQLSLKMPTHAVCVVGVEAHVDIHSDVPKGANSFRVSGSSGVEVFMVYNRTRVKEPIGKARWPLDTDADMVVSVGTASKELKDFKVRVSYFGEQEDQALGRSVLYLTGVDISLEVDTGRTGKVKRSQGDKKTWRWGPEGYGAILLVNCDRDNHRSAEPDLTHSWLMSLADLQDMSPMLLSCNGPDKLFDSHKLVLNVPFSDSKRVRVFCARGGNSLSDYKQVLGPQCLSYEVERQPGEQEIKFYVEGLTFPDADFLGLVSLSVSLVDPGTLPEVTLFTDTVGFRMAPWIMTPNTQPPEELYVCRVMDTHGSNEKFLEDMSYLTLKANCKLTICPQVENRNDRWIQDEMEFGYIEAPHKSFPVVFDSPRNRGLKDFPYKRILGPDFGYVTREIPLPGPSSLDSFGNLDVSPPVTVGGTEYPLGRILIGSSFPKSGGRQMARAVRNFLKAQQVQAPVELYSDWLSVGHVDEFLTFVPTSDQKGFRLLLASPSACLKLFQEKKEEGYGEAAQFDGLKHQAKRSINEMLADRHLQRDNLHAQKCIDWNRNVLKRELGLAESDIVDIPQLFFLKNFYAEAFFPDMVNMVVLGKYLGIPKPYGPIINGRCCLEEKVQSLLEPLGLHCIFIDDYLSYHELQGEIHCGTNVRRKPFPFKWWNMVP

For the molecule `NC1=CC(=O)c2ccc(-c3cccc(C(=O)O)n3)nc2C1=O`, the kinact/KI – broadly, the second-order rate constant of inactivation – was 58.3 M⁻¹ s⁻¹.
